Data from patent US10351589B2, “3α-ethynyl, 3β-hydroxy-5α-pregnan-20-oxime for use in the treatment of CNS disorders” (Umecrine Cognition AB, priority 2015, dated 2019).

What was measured:
Type in all cases: cell-based
[1] = molecular target: T1, α5β3γ2L GABAA receptor (Homo sapiens, UniProt P18507+P28472+P31644); experiment: Example 3: comparative patch clamp test of compound and epimer, change in chloride flow through α5β3γ2L GABAA receptor; conditions: for action on the GABA receptor subunit alpha 5: summary of Table 4
T1 construct: expressed in transfected cells; host or cells: HEK-293 (permanently transfected)
Text: (§1) HEK-293 cells, permanently transfected with the human α1β2γ2 GABAA and α5β3γ2 GABAA receptor expressing functional α1β2γ2L and α5β3γ2L GABAA receptors were used. The cell lines permanently expressing a functional human GABAA receptor was made in following steps. The GABAA receptor subunits α1(308-1727 NM_000806), β2 (214-1679 NM_000813), and γ2L (290-1785 NM_198904) including introduced Kozac sequences just before the start codons were subcloned into mammalian expression vectors containing Geneticin, Hygromycin B, and Zeocin resistance, respectively. A HEK-293 cell line stably expressing the three GABAA receptor subunits was produced by transfection of the subunits one at a time. The transfection was followed by selection with the appropriate antibiotics, cell separation with the use of subunit specific antibodies (β2 and γ2), and production of single cell colonies. Produced cell lines were analysed with immunocytochemistry for the three GABAA receptor subunits, followed by selection of a suitable cell line showing for the GABAA receptor normal and good reactivity in a patch-clamp analysis (see below) towards GABA and the GAMS tetrahydrodeoxycorticosterone (THDOC).
(§2) Experiments were carried out to investigate the effect of 3α-ethynyl, 3β-hydroxy, 5α-pregnan-20-oxime on the GABAA receptor function in absence and in presence of the GAMS Tetrahydrodeoxycorticosterone (THDOC) by the Dynaflow™ system on HEK-293 cells. In these tests the protocol was optimized to be similar to the physiological conditions in the synaptic cleft.
(§3) Cell culture: HEK-293 cells, permanently transfected with human α1β2γ2 GABAA and α5β3γ2 GABAA receptor subtypes, were seeded at a density of 3×10^4/25 cm^2 in cellbind culture flask. The transfected cells were used for patch-clamp experiments 3 days after seeding. When using the cells for patch-clamp experiments the cells were washed twice with O2 bubbled EC-solution (see below). About 5 mL EC was then added and the cells were kept in the incubator for about 15 minutes. After 15 minutes the cells come loose from the bottom of the flask and were separated by carefully sucking couple of times with a Pasteur pipette.
(§4) Dynaflow™ system: Dynaflow™ system with resolve chips was used for all patch-clamp experiments. The resolve chips is made of non-sticky materials. The channel width is 150 μm and the height 50 μm. The well volume is 280 μL. Run time at the flow rate of […]. is […]. The pump settings were as follow: Omnifix 2 mL syringe with inner diameter of 9.65 mm was used. The syringe pump flow rate of chip was 26 μL/min.
Electrophysiology: Patch electrodes were pulled from 1.5 mm O.D., 0.86 mm I.D. borosilicate capillary glass without filament. […] The intracellular solution consisted of (in mM): 140 Cs-gluconate, 3.0 NaCl, 1.2 MgCl2, 1.0 EGTA, 10 HEPES. pH was adjusted to 7.2 with CsOH. The extracellular (EC) solution used during recordings contained (in mM): 137 NaCl, 5.0 KCl, 1.0 CaCl2, 1.2 MgCl2, 10 HEPES, 10 glucose. pH was adjusted with NaOH to 7.4. After compensating for the liquid junction potential a steady holding potential of −17 mV was used in all experiments. In physiological conditions the HEK-293 has a resting potential at −40 mV and a low concentration of chloride ions inside the cell. By using the holding potential of −17 mV and the intracellular solution with low chloride ion concentration the chloride ions flux into the cell when the receptors are activated. All experiments were performed at room temperature (21 to 23° C.). A standard protocol was used for all experiments.
GABA applications: By using the Dynaflow equipment it is possible to study transfected HEK-293 during almost physiological conditions. The Dynaflow system allows application of solutions for as short as 40 ms up to minutes in time. Physiologically, in the synaptic cleft, GABA is released in mM range for about 2 ms this is valid for alpha1 receptors. […]

[2] = molecular target: T2, human α1β2γ2L GABAA receptor (Homo sapiens, UniProt P14867+P18507+P47870); experiment: Patch clamp (Dynaflow) current response mediated by chloride ion flux, α1β2γ2L GABAA receptor in HEK-293 cells
T2 construct: expressed in transfected cells
Text: as §1, §2, §3, §4
(§5) Steroids and GABA: GABA was dissolved in EC-solution by ultrasound for about 40 minutes to the concentration of 10 mM in room temperature. All steroids were dissolved to the concentration of 6 mM in ethanol. The ethanol concentration was 0.1% in all end-solutions, including the wash solution (EC) and the solution with GABA alone. End-solutions are the solutions added into the wells of the chip.
(§6) Electrophysiology: Patch electrodes were pulled from 1.5 mm O.D., 0.86 mm I.D. borosilicate capillary glass without filament. […] The intracellular solution consisted of (in mM): 140 Cs-gluconate, 3.0 NaCl, 1.2 MgCl2, 1.0 EGTA, 10 HEPES. pH was adjusted to 7.2 with CsOH. The extracellular (EC) solution used during recordings contained (in mM): 137 NaCl, 5.0 KCl, 1.0 CaCl2, 1.2 MgCl2, 10 HEPES, 10 glucose. pH was adjusted with NaOH to 7.4. After compensating for the liquid junction potential a steady holding potential of −17 mV was used in all experiments. In physiological conditions the HEK-293 has a resting potential at −40 mV and a low concentration of chloride ions inside the cell. By using the holding potential of −17 mV and the intracellular solution with low chloride ion concentration the chloride ions flux into the cell when the receptors are activated. All experiments were performed at room temperature (21 to 23° C.). A standard protocol was used for all experiments. […]

[3] = molecular target: T1, α5β3γ2L GABAA receptor; experiment: Patch clamp (Dynaflow) current response mediated by chloride ion flux, α5β3γ2L GABAA receptor in HEK-293 cells; conditions: for Relative effect Mean (%) / Relative effect Median: 200 nM THDOC + 0.3 μM GABA, control set to 0
Text: as §1, §2, §3, §4, §5, §6

T1 sequence (P31644 32-462): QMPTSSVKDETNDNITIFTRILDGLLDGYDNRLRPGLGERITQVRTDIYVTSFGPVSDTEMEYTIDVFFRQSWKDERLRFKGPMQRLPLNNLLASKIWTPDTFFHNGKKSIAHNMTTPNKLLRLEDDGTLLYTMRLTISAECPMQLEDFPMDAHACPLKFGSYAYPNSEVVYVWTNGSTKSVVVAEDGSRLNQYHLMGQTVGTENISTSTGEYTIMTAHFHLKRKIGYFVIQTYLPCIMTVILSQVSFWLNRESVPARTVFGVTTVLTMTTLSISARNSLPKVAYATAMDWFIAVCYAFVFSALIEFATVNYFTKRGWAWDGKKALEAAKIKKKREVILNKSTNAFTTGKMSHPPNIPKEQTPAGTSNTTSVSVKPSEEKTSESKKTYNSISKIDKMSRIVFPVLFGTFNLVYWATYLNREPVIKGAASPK
T1 sequence (P28472 26-473): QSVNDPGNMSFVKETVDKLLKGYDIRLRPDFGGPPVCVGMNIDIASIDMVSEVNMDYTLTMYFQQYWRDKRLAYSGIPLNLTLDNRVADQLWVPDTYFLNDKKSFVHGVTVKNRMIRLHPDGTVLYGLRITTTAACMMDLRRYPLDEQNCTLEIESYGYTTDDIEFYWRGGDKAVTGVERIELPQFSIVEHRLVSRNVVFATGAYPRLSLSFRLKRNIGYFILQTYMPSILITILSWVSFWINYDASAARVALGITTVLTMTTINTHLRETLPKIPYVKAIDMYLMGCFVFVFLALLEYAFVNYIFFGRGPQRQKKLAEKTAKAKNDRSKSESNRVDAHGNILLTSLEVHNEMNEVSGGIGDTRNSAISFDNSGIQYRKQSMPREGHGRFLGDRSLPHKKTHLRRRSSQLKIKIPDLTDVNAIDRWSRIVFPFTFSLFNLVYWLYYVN
T1 sequence (P18507 40-475): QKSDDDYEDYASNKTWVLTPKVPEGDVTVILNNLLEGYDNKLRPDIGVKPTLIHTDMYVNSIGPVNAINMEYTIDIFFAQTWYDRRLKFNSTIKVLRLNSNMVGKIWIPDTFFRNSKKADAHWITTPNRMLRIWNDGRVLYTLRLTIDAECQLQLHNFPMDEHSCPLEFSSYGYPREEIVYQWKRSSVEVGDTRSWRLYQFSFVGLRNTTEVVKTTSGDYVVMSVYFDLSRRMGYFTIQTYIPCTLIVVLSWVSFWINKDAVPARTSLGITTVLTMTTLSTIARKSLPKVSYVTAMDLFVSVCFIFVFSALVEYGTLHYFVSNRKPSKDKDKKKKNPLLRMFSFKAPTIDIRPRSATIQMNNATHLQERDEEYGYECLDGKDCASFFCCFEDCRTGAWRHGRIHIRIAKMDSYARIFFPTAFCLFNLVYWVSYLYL
T2 sequence (P14867 28-456): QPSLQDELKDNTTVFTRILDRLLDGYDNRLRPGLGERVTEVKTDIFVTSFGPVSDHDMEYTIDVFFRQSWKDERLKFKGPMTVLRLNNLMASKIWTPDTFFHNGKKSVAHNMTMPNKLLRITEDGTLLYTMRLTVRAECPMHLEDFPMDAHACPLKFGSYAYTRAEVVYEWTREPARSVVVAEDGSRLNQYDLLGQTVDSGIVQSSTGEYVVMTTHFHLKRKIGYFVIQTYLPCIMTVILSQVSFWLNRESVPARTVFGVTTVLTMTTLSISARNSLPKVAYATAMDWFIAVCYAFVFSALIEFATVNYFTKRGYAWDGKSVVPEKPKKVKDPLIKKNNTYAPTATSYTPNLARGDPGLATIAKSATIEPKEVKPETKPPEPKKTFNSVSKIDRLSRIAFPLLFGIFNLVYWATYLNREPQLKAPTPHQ
T2 sequence (P47870 26-474 isoform P47870-1 limits assumed): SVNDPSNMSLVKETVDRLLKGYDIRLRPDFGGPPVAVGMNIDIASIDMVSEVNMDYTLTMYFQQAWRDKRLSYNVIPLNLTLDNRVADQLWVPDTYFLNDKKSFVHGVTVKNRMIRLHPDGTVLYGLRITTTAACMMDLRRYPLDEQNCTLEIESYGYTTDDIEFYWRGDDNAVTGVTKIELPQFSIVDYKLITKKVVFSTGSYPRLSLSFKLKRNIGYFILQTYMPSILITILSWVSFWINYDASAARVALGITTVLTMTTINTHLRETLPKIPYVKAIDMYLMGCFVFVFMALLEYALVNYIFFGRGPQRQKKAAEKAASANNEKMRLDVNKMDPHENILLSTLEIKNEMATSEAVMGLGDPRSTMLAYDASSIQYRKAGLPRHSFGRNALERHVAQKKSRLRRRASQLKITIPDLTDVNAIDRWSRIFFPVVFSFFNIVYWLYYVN
T2 sequence (P18507 40-475): as the sequence (P18507 40-475) above

C#C[C@@]1(O)CC[C@@]2(C)[C@@H](CC[C@@H]3[C@@H]2CC[C@]2(C)[C@@H](C(C)=NO)CC[C@@H]32)C1 [Comparator, 3β-ethynyl, 3α-hydroxy, 5α-pregnan-20-oxime]
Mean % (SEM) Compound + GABA, change in chloride flow ([1]; 1 μM steroid, α5β3γ2L): +210 (23) %
Mean % (SEM) Compound + THDOC + GABA, change in chloride flow ([1]; 1 μM steroid, α5β3γ2L): +80 (8) %
Mean % (SEM) Compound + THDOC, change in chloride flow ([1]; 1 μM steroid, α5β3γ2L): +128 (22) %
Mean % (SEM) Compound alone, change in chloride flow ([1]; 1 μM steroid, α5β3γ2L): +50 (12) %
mode of action, Compound + GABA ([1]; 1 μM steroid, α5β3γ2L): agonist
mode of action, Compound + THDOC ([1]; 1 μM steroid, α5β3γ2L): agonist
mode of action, Compound + THDOC + GABA ([1]; 1 μM steroid, α5β3γ2L): agonist
mode of action, Compound alone ([1]; 1 μM steroid, α5β3γ2L): agonist
action on the GABA receptor subunit alpha 5 [1]: agonist

C#C[C@]1(O)CC[C@@]2(C)C(CCC3C2CC[C@@]2(C)C3CC[C@@H]2/C(C)=N/O)C1 (stereo partly drawn) [Compound, 3α-ethynyl, 3β-hydroxy, 5α-pregnan-20-oxime]
Mean % (SEM) Compound + GABA, change in chloride flow ([1]; 1 μM steroid, α5β3γ2L): −19 (2) %
Mean % (SEM) Compound + THDOC + GABA, change in chloride flow ([1]; 1 μM steroid, α5β3γ2L): −15 (3) %
Mean % (SEM) Compound + THDOC, change in chloride flow ([1]; 1 μM steroid, α5β3γ2L): −30 (6) %
Mean % (SEM) Compound alone, change in chloride flow ([1]; 1 μM steroid, α5β3γ2L): no effect
mode of action, Compound + GABA ([1]; 1 μM steroid, α5β3γ2L): antagonist
mode of action, Compound + THDOC ([1]; 1 μM steroid, α5β3γ2L): antagonist
mode of action, Compound + THDOC + GABA ([1]; 1 μM steroid, α5β3γ2L): antagonist
action on the GABA receptor subunit alpha 5 [1]: antagonist
direct activation of the GABAA receptor in absence of GABA ([2]; 1 μM compound): did not activate
increase of GABA mediated current response ([2]; 1 μM compound, α1β2γ2L): approximately 10%
effect on GABA's opening of the α1β2γ2L GABAA receptor ([2]; compound + GABA): slight agonistic effect
effect of compound alone on chloride flux ([2]; compound alone): no enhancing or antagonizing effect
Compound + GABA, current response ([2]; α1β2γ2L): +11 ± 4
antagonistic effect against the enhancing effect of THDOC ([2]; α1β2γ2L receptor): no antagonistic effect
Compound + GAMS + GABA, current response ([2]; α1β2γ2L, GAMS = THDOC): No effect
Compound alone, current response ([2]; α1β2γ2L, no GABA, no GAMS): No effect
Relative effect Mean (%) ([3]; 0.1 μM compound): −3.0%
Relative effect Median ([3]; 0.1 μM compound): −1.6
effect on 200 nM THDOC evoked current (direct activation by GAMS) ([3]; 200 nM THDOC, no GABA): antagonizing effect
Relative effect Mean (%) ([3]; 0.3 μM compound): −6.6%
Relative effect Median ([3]; 0.3 μM compound): −6.9
Relative effect Mean (%) ([3]; 1 μM compound): −15.2%
Relative effect Median ([3]; 1 μM compound): −11.0
Relative effect Mean (%) ([3]; 3 μM compound): −20.7%
Relative effect Median ([3]; 3 μM compound): −23.6
effect on 200 nM GAMS (THDOC) and 0.3 μM GABA evoked currents ([3]; 0.1-3 μM compound): clear concentration dependent antagonizing effect
action on α5β3γ2L receptor subtype ([3]; all tested situations with GAMS and GABA): antagonist
Compound + GABA, current response ([3]; α5β3γ2): −18.8 ± 2.2
Compound + GAMS + GABA, current response ([3]; α5β3γ2, GAMS = THDOC): −15.2 ± 2.8
Compound + GAMS, current response ([3]; α5β3γ2, GAMS = THDOC, no GABA): −29.7 ± 6.5
Compound alone, current response ([3]; α5β3γ2, no GABA, no GAMS): No effect
